Test [1] concerns the target T1, RML-4–RML-5 (Caenorhabditis elegans, UniProt Q17556).
T1 sequence (Q17556 1-631): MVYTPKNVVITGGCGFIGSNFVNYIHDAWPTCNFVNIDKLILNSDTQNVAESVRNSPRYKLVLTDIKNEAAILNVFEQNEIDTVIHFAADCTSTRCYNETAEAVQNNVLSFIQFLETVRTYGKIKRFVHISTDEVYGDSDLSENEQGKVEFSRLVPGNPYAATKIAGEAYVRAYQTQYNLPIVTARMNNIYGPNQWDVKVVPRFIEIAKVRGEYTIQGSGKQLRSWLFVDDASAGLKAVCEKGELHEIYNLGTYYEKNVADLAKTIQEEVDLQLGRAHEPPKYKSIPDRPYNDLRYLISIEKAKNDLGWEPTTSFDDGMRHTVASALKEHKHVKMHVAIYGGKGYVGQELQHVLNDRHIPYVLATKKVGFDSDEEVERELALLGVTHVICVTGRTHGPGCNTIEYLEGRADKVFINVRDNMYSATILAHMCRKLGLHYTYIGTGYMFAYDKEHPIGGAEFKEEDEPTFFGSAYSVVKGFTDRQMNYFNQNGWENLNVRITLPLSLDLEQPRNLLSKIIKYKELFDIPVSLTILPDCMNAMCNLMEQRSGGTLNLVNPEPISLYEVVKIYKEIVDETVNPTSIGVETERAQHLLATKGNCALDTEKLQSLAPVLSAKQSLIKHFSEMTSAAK
T1 sequence (Q95XM5 1-383 partner): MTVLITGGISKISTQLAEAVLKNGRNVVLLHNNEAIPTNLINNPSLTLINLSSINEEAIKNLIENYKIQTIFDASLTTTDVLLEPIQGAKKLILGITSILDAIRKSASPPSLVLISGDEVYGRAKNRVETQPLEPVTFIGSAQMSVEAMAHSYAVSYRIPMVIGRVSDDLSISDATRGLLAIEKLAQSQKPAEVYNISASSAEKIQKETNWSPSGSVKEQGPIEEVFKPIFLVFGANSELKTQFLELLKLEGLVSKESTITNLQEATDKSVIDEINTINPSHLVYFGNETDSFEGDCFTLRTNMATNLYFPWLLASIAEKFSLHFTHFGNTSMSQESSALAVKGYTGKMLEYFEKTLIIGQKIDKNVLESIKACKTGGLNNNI
Nature of the test: LC–MS. The following applies: formed from dTDP-4-keto-6-deoxyglucose with RML-3 and NAD(P)H, 25°C. Type of test: biochemical.

Test [2] concerns the target T2, RML-1 (Caenorhabditis elegans, UniProt Q9XUS4).
T2 sequence (Q9XUS4 1-511): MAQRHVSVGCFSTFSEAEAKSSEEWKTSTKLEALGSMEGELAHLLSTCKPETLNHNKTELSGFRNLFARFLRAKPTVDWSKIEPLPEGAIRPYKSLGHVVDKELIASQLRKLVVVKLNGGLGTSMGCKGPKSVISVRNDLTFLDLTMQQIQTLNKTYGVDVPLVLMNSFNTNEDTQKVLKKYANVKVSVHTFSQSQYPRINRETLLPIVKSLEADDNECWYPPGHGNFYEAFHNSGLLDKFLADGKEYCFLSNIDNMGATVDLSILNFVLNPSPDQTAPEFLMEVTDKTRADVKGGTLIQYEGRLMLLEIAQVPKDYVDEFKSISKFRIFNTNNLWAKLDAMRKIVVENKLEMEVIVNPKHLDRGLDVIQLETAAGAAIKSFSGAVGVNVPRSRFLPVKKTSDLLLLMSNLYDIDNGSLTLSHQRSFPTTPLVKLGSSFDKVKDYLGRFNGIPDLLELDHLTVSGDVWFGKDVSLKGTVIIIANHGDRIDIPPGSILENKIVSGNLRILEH
As to the kind of experiment: EnzChek pyrophosphate assay, […] nm. It is filed as biochemical. As to conditions: 1 mM Glc-1-P; 5 mM MgCl2, pH 7.5, 25°C.

From PMC4888466 (Biochemical Journal, 2016) come the findings set out here.

For the compound `Cc1cn([C@H]2C[C@H](O)[C@@H](COP(=O)(O)OP(=O)(O)O[C@H]3O[C@@H](C)[C@H](O)[C@@H](O)[C@H]3O)O2)c(=O)[nH]c1=O` [dTDP-rhamnose], the “LC-MS; 1H NMR and COSY of HPLC-purified product” value in test [1] is “the final product is dTDP-rhamnose when dTDP-4-keto-6-deoxyglucose is incubated with RML-3 and RML-4–RML-5”. In the case of `O=c1ccn([C@@H]2O[C@H](COP(=O)(O)OP(=O)(O)OP(=O)(O)O)[C@@H](O)[C@H]2O)c(=O)[nH]1` [UTP], the Michaelis constant (Km) in test [2] stood at 9.47 ± 1.7 µM.

Take `Cc1cn([C@H]2C[C@H](O)[C@@H](COP(=O)(O)OP(=O)(O)OP(=O)(O)O)O2)c(=O)[nH]c1=O` [dTTP]: the Km in test [2] stood at 24.2 ± 2.86 µM.
